ChEMBL document CHEMBL6134871, “PCSK9 Targeted Autophagosome-Tethering Compounds: Design, Synthesis, and Antiatherosclerosis Evaluation” (J Med Chem, 2025)
One block for each compound: values may come before it. The source made the active and inactive calls. No cut-off for these calls is given here.

Experiments:
Huh-7 [1] = experiment: Induction of autophagy in human Huh-7 cells assessed as colocalization of lysosome with LC3B protein at 100 nM incubated for 3 hrs by DAPI staining based fluorescence based analysis; type: functional, cell-based
Huh-7 [2] = experiment: Induction of autophagy in human Huh-7 cells assessed as colocalization of lysosome with LAMP1 protein at 100 nM incubated for 3 hrs by DAPI staining based fluorescence based analysis; type: functional, cell-based
[3] = Cmax in C57 mouse at 5 mg/kg, ip; type: ADME, organism-based; conditions: in vivo
MOVAS [4] = experiment: Antiproliferative activity mouse MOVAS cells assessed as inhibition of cell growth incubated for 24 hrs by MTT assay; type: functional, cell-based
THP-1 [5] = experiment: Anti-atherosclerosis activity in human THP-1 cells transfected with PCSK9 siRNA assessed as reduction in ox-LDL-induced amount of red lipid droplets at 100 nM preincubated with compound for 24 hrs followed by ox-LDL induction and measured after 24 hrs by oil red staining based analysis; type: functional, cell-based; conditions: time 48.0 hrs
HUVEC [6] = experiment: Antiproliferative activity human HUVEC cells assessed as inhibition of cell growth incubated for 24 hrs by MTT assay; type: toxicity, cell-based
THP-1 [7] = experiment: Anti-atherosclerosis activity in human THP-1 cells transfected with PCSK9 siRNA assessed as reduction in NLRP3 level at 100 nM preincubated with compound for 24 hrs followed by ox-LDL induction and measured after 24 hrs by Western blot analysis; type: functional, cell-based; conditions: time 48.0 hrs
Mus musculus [8] = experiment: Anti-atherosclerosis activity in mouse assessed as reduction in plaque area in aorta at 15 mg/kg, po measured for 3 weeks; type: functional, organism-based
[9] = AUC (0 to t) in C57 mouse at 5 mg/kg, ip; type: ADME, organism-based; conditions: in vivo
HUVEC [10] = experiment: Anti-atherosclerosis activity in human HUVEC cells transfected with PCSK9 siRNA assessed as inhibition of LPS-induced VCAM-1 mRNA expression at 100 nM preincubated with compound for 24 hrs followed by LPS induction and measured after 24 hrs by qPCR analysis; type: functional, cell-based; conditions: time 48.0 hrs
Huh-7 [11] = experiment: Induction of LDL uptake in human Huh-7 cells at 100 nM incubated for 24 hrs by DiI-LDL DMEM staining based fluorescence microplate reader assay; type: functional, cell-based
[12] = Toxicity in mouse assessed as kidney damage at 5 to 15 mg/kg, po; type: organism-based; conditions: in vivo, dose 5-15 mg/kg
[13] = AUC (0 to t) in C57 mouse at 5 mg/kg, po; type: ADME, organism-based; conditions: in vivo
[14] = AUC (0 to t) in C57 mouse at 5 mg/kg, iv; type: ADME, organism-based; conditions: in vivo
THP-1 [15] = experiment: Antiproliferative activity human THP-1 cells assessed as inhibition of cell growth incubated for 24 hrs by MTT assay; type: functional, cell-based
Mus musculus [16] = experiment: Anti-atherosclerosis activity in mouse assessed as reduction in LDLR level in liver at 15 mg/kg, po measured for 3 weeks by Western blot analysis; type: functional, organism-based
[17] = AUC (0 to infinity) in C57 mouse at 5 mg/kg, iv; type: ADME, organism-based; conditions: in vivo
HepG2 = experiment: Antiproliferative activity human HepG2 cells assessed as inhibition of cell growth incubated for 24 hrs by MTT assay; type: functional, cell-based
HUVEC [18] = experiment: Anti-atherosclerosis activity in human HUVEC cells transfected with PCSK9 siRNA assessed as inhibition of LPS-induced ICAM-1 mRNA expression at 100 nM preincubated with compound for 24 hrs followed by LPS induction and measured after 24 hrs by qPCR analysis; type: functional, cell-based; conditions: time 48.0 hrs
[19] = Cmax in C57 mouse at 5 mg/kg, po; type: ADME, organism-based; conditions: in vivo
HUVEC [20] = experiment: Anti-atherosclerosis activity in human HUVEC cells transfected with PCSK9 siRNA assessed as inhibition of ox-LDL-induced caspase 9 expression at 100 nM preincubated with compound for 24 hrs followed by ox-LDL induction and measured after 24 hrs by Western blot analysis; type: functional, cell-based; conditions: time 48.0 hrs
Mus musculus [21] = experiment: Anti-atherosclerosis activity in mouse assessed as […] in LDL level in liver at 15 mg/kg, po measured for 3 weeks; type: functional, organism-based
Mus musculus [22] = experiment: Anti-atherosclerosis activity in mouse assessed as reduction in PCSK9 level in liver at 15 mg/kg, po measured for 3 weeks by Western blot analysis; type: functional, organism-based
MOVAS [23] = experiment: Downregulation of PCSK9 expression in mouse MOVAS cells transfected with PCSK9 siRNA incubated for 24 hrs Western blot analysis; type: functional, cell-based
Huh-7 [24] = experiment: Induction of autophagy in human Huh-7 cells assessed as reduction in PCSK9 level at 37 uM incubated for 24 hrs in presence of chloroquine by Western blot analysis; type: functional, cell-based
Huh-7 [25] = experiment: Induction of autophagy in human Huh-7 cells assessed as reduction in PCSK9 level at 100 nM incubated for 24 hrs in presence of EBSS by Western blot analysis; type: functional, cell-based
THP-1 [26] = experiment: Anti-atherosclerosis activity in human THP-1 cells transfected with PCSK9 siRNA assessed as reduction in NF-kappaB level at 100 nM preincubated with compound for 24 hrs followed by ox-LDL induction and measured after 24 hrs by Western blot analysis; type: functional, cell-based; conditions: time 48.0 hrs
Huh-7 [27] = experiment: Induction of autophagy in human Huh-7 cells assessed as reduction in PCSK9 level at 100 nM incubated for 24 hrs in presence of carfilzomib by Western blot analysis; type: functional, cell-based
[28] = Toxicity in mouse assessed as heart damage at 5 to 15 mg/kg, po; type: organism-based; conditions: in vivo, dose 5-15 mg/kg
[29] = Toxicity in mouse assessed as change in body weight at 5 to 15 mg/kg, po; type: organism-based; conditions: in vivo, dose 5-15 mg/kg
[30] = Tmax in C57 mouse at 5 mg/kg, po; type: ADME, organism-based; conditions: in vivo
[31] = AUC (0 to infinity) in C57 mouse at 5 mg/kg, po; type: ADME, organism-based; conditions: in vivo
Mus musculus [32] = experiment: Anti-atherosclerosis activity in mouse assessed as reduction in TC level in plasma at 15 mg/kg, po measured for 3 weeks; type: functional, organism-based
[33] = Tmax in C57 mouse at 5 mg/kg, ip; type: ADME, organism-based; conditions: in vivo
HUVEC [34] = experiment: Anti-atherosclerosis activity in human HUVEC cells transfected with PCSK9 siRNA assessed as inhibition of ox-LDL-induced caspase 3 expression at 100 nM preincubated with compound for 24 hrs followed by ox-LDL induction and measured after 24 hrs by Western blot analysis; type: functional, cell-based; conditions: time 48.0 hrs
THP-1 [35] = experiment: Anti-atherosclerosis activity in human THP-1 cells transfected with PCSK9 siRNA assessed as reduction in CD36 level at 100 nM preincubated with compound for 24 hrs followed by ox-LDL induction and measured after 24 hrs by Western blot analysis; type: functional, cell-based; conditions: time 48.0 hrs
HUVEC [36] = experiment: Anti-atherosclerosis activity in human HUVEC cells transfected with PCSK9 siRNA assessed as increase in Bcl-2 level at 100 nM incubated for 24 hrs by Western blot analysis; type: functional, cell-based
[37] = Bioavailability in C57 mouse at 5 mg/kg, ip; type: ADME, organism-based; conditions: in vivo
Mus musculus [38] = experiment: Anti-atherosclerosis activity in mouse assessed as reduction in NLRP3 level in liver at 15 mg/kg, po measured for 3 weeks by Western blot analysis; type: functional, organism-based
Huh-7 [39] = experiment: Antiproliferative activity human Huh-7 cells assessed as inhibition of cell growth incubated for 24 hrs by MTT assay; type: functional, cell-based
[40] = Oral bioavailability in C57 mouse at 5 mg/kg; type: ADME, organism-based; conditions: in vivo
[41] = AUC (0 to infinity) in C57 mouse at 5 mg/kg, ip; type: ADME, organism-based; conditions: in vivo
Mus musculus [42] = experiment: Anti-atherosclerosis activity in mouse assessed as reduction in NF-kappab level in liver at 15 mg/kg, po measured for 3 weeks by Western blot analysis; type: functional, organism-based
HUVEC [43] = experiment: Anti-atherosclerosis activity in human HUVEC cells assessed as reduction in Bax level at 100 nM incubated for 24 hrs by Western blot analysis; type: functional, cell-based

SMILES: COc1cc2c(cc1O)C(C)(CC(=O)Nc1nccs1)NCC2 (stereo not given)
Activity (Huh-7 [1]): inactive
Activity (Huh-7 [2]): inactive

Cmax [3]: 1860 ng/mL
AUC(0-t) [9]: 6070 ng·h/mL
AUC(0-t) [13]: 59.8 ng·h/mL
AUC(0-t) [14]: 9500 ng·h/mL
AUC ([17]; mouse, iv, 5 mg/kg): 9932 ng·h/mL
Cmax [19]: 57.8 ng/mL
Tmax [30]: 15 min
AUC ([31]; mouse, po, 5 mg/kg): 177 ng·h/mL
Tmax [33]: 30 min
bioavailability [37]: 63.9%
F ([40]; mouse, po, 5 mg/kg): 0.63%
AUC(0-inf) [41]: 6350 ng·h/mL
SMILES: COc1cc2c(cc1OCCOCCOCCOCCN1C(=O)/C(=C\c3cc(Br)c(O)c(Br)c3)c3cc(I)ccc31)C(C)(CC(=O)Nc1nccs1)NCC2 (stereo not given)
Activity (Huh-7 [1]): Active
Activity (MOVAS [4]): Active
Activity (THP-1 [5]): Active
Activity (HUVEC [6]): Non-toxic
Activity (THP-1 [7]): Active
Activity (Mus musculus [8]): Active
Activity (HUVEC [10]): Active
Activity (Huh-7 [11]): Active
Activity [12]: Non-toxic
Activity (Huh-7 [2]): Active
Activity (THP-1 [15]): Active
Activity (Mus musculus [16]): Active
Activity (HepG2): Active
Activity (HUVEC [18]): Active
Activity (HUVEC [20]): Active
Activity (Mus musculus [21]): Active
Activity (Mus musculus [22]): Active
Activity (MOVAS [23]): Active
Activity (Huh-7 [24]): inactive
Activity (Huh-7 [25]): Active
Activity (THP-1 [26]): Active
Activity (Huh-7 [27]): Active
Activity [28]: Non-toxic
Activity [29]: Non-toxic
Activity (Mus musculus [32]): Active
Activity (HUVEC [34]): Active
Activity (THP-1 [35]): Active
Activity (HUVEC [36]): Active
Activity (Mus musculus [38]): Active
Activity (Huh-7 [39]): Active
Activity (Mus musculus [42]): Active
Activity (HUVEC [43]): Active

SMILES: O=C1Nc2ccc(I)cc2/C1=C/c1cc(Br)c(O)c(Br)c1
Activity (Huh-7 [1]): inactive
Activity (Huh-7 [2]): inactive

Cmax [3]: 423 ng/mL
AUC(0-t) [9]: 951 ng·h/mL
AUC(0-t) [13]: 101 ng·h/mL
AUC(0-t) [14]: 9810 ng·h/mL
AUC(0-inf) ([17]; C57, mouse): 10600 ng·h/mL
Cmax [19]: 55 ng/mL
Tmax [30]: 60 min
AUC(0-inf) ([31]; C57, mouse): 119 ng·h/mL
Tmax [33]: 60 min
bioavailability [37]: 9.69%
bioavailability ([40]; C57, mouse): 1.02%
AUC(0-inf) [41]: 987 ng·h/mL
SMILES: COc1cc2c(cc1OCCCCN1C(=O)/C(=C\c3cc(Br)c(O)c(OC)c3)c3cc(Br)ccc31)C(C)(CC(=O)Nc1nccs1)NCC2 (stereo not given)
